In paper PMC9973354 (mBio, 2022):
Starred links: 1 amine or outer side, 2 acyl side, 3 side chain; linkers in the order of their positions; H or OH if unused. Positions of bridges follow the written chain, without caps; N, C: chain ends. Non-standard residues stand in square brackets, D forms with d. Residues, ends and D or L forms follow the SMILES beside them. ξ: configuration not given here. X1 = O=C([C@@H]1CCN=C2C(N[*:1])=Cc3cc(O)c(O)cc3N21)[*:2]; ξOrn(N(OH)CHO) = NC(CCCN(O)C=O)C(=O)O; Suc = O=C(CCC(=O)[*:2])[*:1]; ξK = NCCCCC(N)C(=O)O; ξS = NC(CO)C(=O)O

Tests used:
Format in all cases: cell-based, Pseudomonas aeruginosa
PA14 ΔfpvB mutant = experiment: Growth curves with DSX and siderophores, ΔfpvB; conditions: 20 h
Method: Supplementary file : FIG S1 (A) FpvB is expressed in WT PA14 and the ΔfpvA mutant grown in 10:90. PilF was used as a loading control for outer membrane proteins. (B) FpvA is expressed from WT PA14 grown in 10:90. […] PilF was used as a loading control for outer membrane proteins. (C) Growth curves of PA14 and mutants with DSX and different siderophores in 10:90. PA14, ΔfpvA, ΔfpvB, ΔfpvA ΔfpvB, and ΔpvdA ΔpchA strain growth. Blue indicates control, purple indicates treatment with 64 μg/mL DSX, yellow indicates treatment with 10 μg/mL pyoverdine (PA14), and red indicates treatment with 64 μg/mL DSX and 10 μg/mL pyoverdine (PA14). (D) ΔfpvA, ΔfpvA ΔfpvB, and ΔpvdA ΔpchA strain growth. Blue indicates control, purple indicates treatment with 64 μg/mL DSX, grey indicates treatment with 10 μg/mL ferrichrome, and red indicates treatment with 64 μg/mL DSX and 10 μg/mL ferrichrome. (E) ΔfpvA, ΔfpvA ΔfpvB, and ΔpvdA ΔpchA strain growth. […] Download FIG S1, EPS file, 8.5 MB.
Another explanation for the susceptibility of the ΔfpvA mutant to DSX is that the mutant produces less pyoverdine compared to WT cells due to loss of the signaling cascade that controls siderophore production in response to its binding to FpvA ([25]). To differentiate whether the fpvA mutant was susceptible to DSX because of reduced pyoverdine production or because FpvB was a poor pyoverdine transporter, we treated the WT, ΔfpvA, ΔfpvB, and ΔfpvA ΔfpvB strains with DSX (64 μg/mL) without and with exogenous pyoverdine (10 μg/mL) for 20 h (Fig. 1; see also Fig. S1C). Growth of the ΔfpvA mutant should be restored if there are functional pyoverdine transporters. […] The growth of the ΔfpvA ΔfpvB mutant was inhibited by DSX and pyoverdine, confirming previously published results ([18]).

[1] = system: PA14 ΔfpvA ΔfpvB pHERD20T-fpvB; experiment: Checkerboard assay TS and siderophores, FpvB expressed; conditions: 10:90 + 2% arabinose
From the text: We investigated this hypothesis by treating the ΔfpvA ΔfpvB mutant complemented with fpvA or fpvB with TS and pyoverdine-Fe^3+. If pyoverdine competes with TS for the same binding site in the transporter, a reduction in TS susceptibility would be expected, as competition would decrease entry of the antibiotic into the cell. TS susceptibility decreased >8-fold with increasing concentrations of pyoverdine-Fe^3+ when FpvA was expressed (see Fig. S2A in the supplemental material).
Supplementary file : FIG S2 Checkerboard assays of the PA14 ΔfpvA ΔfpvB strain complemented with fpvA and fpvB in trans with TS and siderophores. […] Checkerboards of the PA14 ΔfpvA ΔfpvB pHERD20T-fpvB strain with TS and enterobactin (G), ferrioxamine E (H), and arthrobactin (I). Results are averaged from three independent biological replicates. Cells in the assay were grown in 10:90 + 2% arabinose. Download FIG S2, EPS file, 2.2 MB.
Checkerboards (8 rows by 8 columns) were conducted as previously described in a 96-well plate (Nunc) ([13], [14]). TS at 75× the final concentration dissolved in DMSO was added in columns from bottom to top in increasing concentrations. […] The next day, the OD600 was determined with a plate reader (Thermo Scientific) and normalized to percent of growth of the vehicle control (DMSO) after subtracting the OD600 from blank media.

[2] = system: PA14 ΔfpvA ΔfpvB ΔfiuA ΔfoxA pHERD20T-fpvB Y432A; experiment: Growth of quadruple mutant expressing FpvB Y432A; conditions: 10:90 + 2% arabinose
Method: Site-directed mutagenesis was used to confirm the docking predictions and to define the molecular determinants for ligand uptake through FpvB (Fig. 4C). We generated 17 single amino acid substitutions in FpvB and expressed each of them in trans in the quadruple ΔfpvA ΔfpvB ΔfiuA ΔfoxA mutant. Their ability to complement growth of the mutant in the presence of ferrichrome and ferrioxamine B and to restore TS susceptibility was assessed. […] The mutant transporters were tagged with a C-terminal FLAG tag to evaluate expression levels. FLAG-tagged FpvB mutants had WT levels of expression except for Y216T and W347V, which were expressed at 140% and 25% of WT, respectively.
The ΔfpvA ΔfpvB ΔfiuA ΔfoxA mutant was complemented with WT fpvA, fpvB, fiuA, and foxA in trans as controls (Fig. 4E).
MIC assays were conducted as previously described ([13], [14]). Overnight cultures were grown in LB from a glycerol stock at 37°C with shaking (200 rpm). Subcultures in 10:90 (1:100 dilution) were cultured for 4 h. Cells were adjusted to an optical density at 600 nm (OD600) of 0.1/500 in 10:90. All compounds were serially diluted 2-fold in dimethyl sulfoxide (DMSO) or H2O at 75× the final concentration. […] The next day, the OD600 was determined with a plate reader (Thermo Scientific) and normalized to percent of growth of the vehicle control after subtracting the OD600 from blank media.

Structure (SMILES)	growth with siderophore in the presence of DSX (PA14 ΔfpvB mutant; 64 μg/mL DSX + 10 μg/mL pyoverdine)	growth versus control (PA14 ΔfpvB mutant; DSX 64 μg/mL or pyoverdine 10 μg/mL alone, 10:90)	effect of siderophore on TS susceptibility [1]	growth in the presence of siderophore [2]
NCCCCC(NC(=O)C(CO)NC(=O)[C@@H]1CCN=C2C(NC(=O)CCC(=O)O)=Cc3cc(O)c(O)cc3N21)C(=O)NCC(=O)NC(CCCN(O)C=O)C(=O)NC1CCCCNC(=O)C(CO)NC(=O)C(CCCN(O)C=O)NC1=O (stereo partly shown) [pyoverdine] (Suc-[X1][ξS][ξK]G[ξOrn(N(OH)CHO)][ξK][ξOrn(N(OH)CHO)][ξS]; lactam 6-C)	increased growth	increased growth		
CC(=O)N(O)CCCCCNC(=O)CCC(=O)N(O)CCCCCNC(=O)CCC(=O)N(O)CCCCCN [ferrioxamine B]			antagonized TS susceptibility	prevented growth
